molecular target: Recombinant human KIF18A (1-467His-tagged) protein (Homo sapiens (Human), UniProt Q8NI77); assay: KIF18A enzyme assay (microtubule-stimulated ATPase activity, ADP-Glo); assay type: biochemical; conditions: 30 nM KIF18A, ATP 75 μM, read-out: inhibitory activity against KIF18A IC50
Outline: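 Baculovirus-expressed human KIF18A (1-467, His-tagged; 30 nM) preincubated 15 min at room temperature with compound (22-point 2-fold series) in pH 7.5 Tris buffer containing 30 μg/mL pig microtubules and 1 μM paclitaxel.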

Sequence of Recombinant human KIF18A (1-467His-tagged) protein (Q8NI77 1-467): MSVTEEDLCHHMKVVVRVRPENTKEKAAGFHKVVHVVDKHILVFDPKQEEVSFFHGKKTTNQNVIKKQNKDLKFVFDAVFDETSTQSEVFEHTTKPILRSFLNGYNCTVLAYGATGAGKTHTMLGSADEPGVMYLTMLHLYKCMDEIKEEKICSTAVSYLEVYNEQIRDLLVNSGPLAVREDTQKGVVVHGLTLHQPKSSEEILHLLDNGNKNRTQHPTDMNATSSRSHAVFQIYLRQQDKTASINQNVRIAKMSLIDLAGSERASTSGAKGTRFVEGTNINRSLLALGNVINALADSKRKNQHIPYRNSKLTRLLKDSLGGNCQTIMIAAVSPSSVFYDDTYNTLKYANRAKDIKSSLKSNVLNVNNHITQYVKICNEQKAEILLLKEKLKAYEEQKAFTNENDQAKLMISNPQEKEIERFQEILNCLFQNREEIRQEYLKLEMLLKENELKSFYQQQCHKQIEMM
Sequence of Recombinant human KIF18A (1-467His-tagged) protein (P02550 whole entry partner): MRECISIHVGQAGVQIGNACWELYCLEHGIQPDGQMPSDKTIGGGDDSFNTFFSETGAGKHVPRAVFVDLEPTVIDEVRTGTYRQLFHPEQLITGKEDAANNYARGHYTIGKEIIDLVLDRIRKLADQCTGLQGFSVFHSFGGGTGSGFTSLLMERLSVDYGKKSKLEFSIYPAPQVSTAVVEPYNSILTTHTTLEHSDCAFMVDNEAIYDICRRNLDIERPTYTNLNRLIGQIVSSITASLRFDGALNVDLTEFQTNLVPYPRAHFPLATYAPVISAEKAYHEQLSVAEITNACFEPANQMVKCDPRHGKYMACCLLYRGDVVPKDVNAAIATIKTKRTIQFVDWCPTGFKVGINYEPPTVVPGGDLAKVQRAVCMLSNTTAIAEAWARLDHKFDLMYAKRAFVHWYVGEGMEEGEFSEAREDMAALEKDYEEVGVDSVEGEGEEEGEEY
Sequence of Recombinant human KIF18A (1-467His-tagged) protein (P02554 whole entry partner): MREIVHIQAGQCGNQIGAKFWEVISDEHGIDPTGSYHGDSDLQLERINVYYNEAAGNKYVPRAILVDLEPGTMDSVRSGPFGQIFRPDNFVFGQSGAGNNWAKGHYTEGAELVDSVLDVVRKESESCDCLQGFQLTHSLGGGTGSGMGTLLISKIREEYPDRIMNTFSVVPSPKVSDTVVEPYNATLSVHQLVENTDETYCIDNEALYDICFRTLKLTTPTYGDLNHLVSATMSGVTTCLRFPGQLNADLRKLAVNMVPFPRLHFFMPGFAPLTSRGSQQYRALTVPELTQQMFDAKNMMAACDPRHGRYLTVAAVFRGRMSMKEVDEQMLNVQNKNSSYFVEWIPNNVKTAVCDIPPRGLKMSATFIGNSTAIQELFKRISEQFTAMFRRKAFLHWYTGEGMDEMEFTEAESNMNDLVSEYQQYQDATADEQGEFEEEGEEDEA

SMILES	IC50 [nM]
C[C@H](CO)NS(=O)(=O)c1ccc(C(=O)Nc2cc3ccn(C)c3c(N3CCC(F)(F)CC3)n2)c(N2CCC3(CC2)CC3)c1 [Compound 478]	≤ 100
C[C@@H](CO)NS(=O)(=O)c1ccc(C(=O)Nc2cc3c(c(N4CCC(F)(F)CC4)c2)OCC3)c(N2CCC3(CC2)CC3)c1 [Compound 29]	≤ 100
C[C@@H]1CN(c2nc(NC(=O)c3ccc(NS(=O)(=O)[C@H](C)CO)cc3N3CCC4(CC3)CC4)cc3c2N(C)CC3)CCO1 [Compound 336]	≤ 100
O=C(Nc1ccc(S(=O)(=O)NCCO)cc1N1CCC2(CC1)CC2)c1cc2c(c(N3CCC4(CC4)C3)c1)OCC2 [Compound 54]	≤ 100
O=C(Nc1cc(N2CCC(F)CC2)c2occc2c1)c1ccc(S(=O)(=O)NCCO)cc1N1CCC2(CC1)CC2 [Compound 153]	≤ 100
CN1CCc2cc(C(=O)Nc3ccc(S(=O)(=O)NCCO)cc3N3CCC4(CC3)CC4)nc(N3CCC(F)CC3)c21 [Compound 377]	≤ 100
Cn1ccc2cc(NC(=O)c3ccc(S(=O)(=O)NCCO)cc3N3CCC4(CC3)CC4)cc(N3CC(F)(F)C3)c21 [Compound 404]	≤ 100
O=C(Nc1cc2c(c(N3CCC(F)CC3)n1)OCC2)c1ccc(S(=O)(=O)NCCO)cc1N1CCC2(CC1)CC2 [Compound 89]	≤ 100
C[C@H](CO)S(=O)(=O)Nc1ccc(NC(=O)c2cc3c(c(N4CCC(F)(F)CC4)n2)OCC3)c(N2CCC3(CC2)CC3)c1 [Compound 110]	≤ 100
C[C@@H](CO)NS(=O)(=O)c1ccc(C(=O)Nc2cc3c(c(N4CCC(F)(F)CC4)c2)N(C)CC3)c(N2CCC3(CC2)CC3)c1 [Compound 285]	≤ 100
C[C@@H]1CN(c2nc(NC(=O)c3ccc(S(=O)(=O)N[C@@H](C)CO)cc3N3CCC4(CC3)CC4)cc3ccoc23)CCO1 [Compound 223]	≤ 100
Cn1ccc2cc(NC(=O)c3ccc(NS(=O)(=O)CCO)cc3N3CCC4(CC3)CC4)nc(N3CCC4(CC4)C3)c21 [Compound 454]	≤ 100
O=C(Nc1ccc(NS(=O)(=O)CCO)cc1N1CCC2(CC1)CC2)c1cc2ccoc2c(N2CC3CC3C2)n1 (stereo not drawn) [Compound 234]	≤ 100
C[C@H](CO)S(=O)(=O)Nc1ccc(C(=O)Nc2cc(N3CCC(F)(F)CC3)c3c(ccn3C)c2)c(N2CCC3(CC2)CC3)c1 [Compound 398]	≤ 100
C[C@@H]1CN(c2nc(NC(=O)c3ccc(NS(=O)(=O)[C@@H](C)CO)cc3N3CCC4(CC3)CC4)cc3ccn(C)c23)CCO1 [Compound 463]	≤ 100
C[C@@H](CO)NS(=O)(=O)c1ccc(NC(=O)c2cc3c(c(N4CCC(F)(F)CC4)c2)N(C)CC3)c(N2CCC3(CC2)CC3)c1 [Compound 317]	≤ 100
CN1CCc2cc(C(=O)Nc3ccc(NS(=O)(=O)CCO)cc3N3CCC4(CC3)CC4)cc(N3CC4CC4C3)c21 (stereo not drawn) [Compound 298]	≤ 100
Cn1ccc2cc(C(=O)Nc3ccc(S(=O)(=O)NCCO)cc3N3CCC4(CC3)CC4)nc(N3CCOCC3)c21 [Compound 508]	≤ 100
CC1(F)CCN(c2cc(C(=O)Nc3ccc(S(=O)(=O)NCCO)cc3N3CCC4(CC3)CC4)cc3c2OCC3)C1 (stereo not drawn) [Compound 56]	≤ 100
O=C(Nc1ccc(NS(=O)(=O)CCO)cc1N1CCC2(CC1)CC2)c1cc2c(c(OC3CCC3)c1)OCC2 [Compound 39]	≤ 100
C[C@@H](CO)NS(=O)(=O)c1ccc(C(=O)Nc2cc3ccn(C)c3c(N3CCC(F)(F)CC3)n2)c(N2CCC3(CC2)CC3)c1 [Compound 477]	≤ 100
C[C@H](CO)S(=O)(=O)Nc1ccc(C(=O)Nc2cc3ccn(C)c3c(N3CCC(F)(F)CC3)n2)c(N2CCC3(CC2)CC3)c1 [Compound 462]	≤ 100
C[C@H](CO)NS(=O)(=O)c1ccc(NC(=O)c2cc3ccn(C)c3c(N3CCO[C@H](C)C3)n2)c(N2CCC3(CC2)CC3)c1 [Compound 512]	≤ 100

SMILES	IC50 [nM]
Cn1ccc2cc(NC(=O)c3ccc(NS(=O)(=O)CCO)cc3N3CCC4(CC3)CC4)cc(N3CC4CC4C3)c21 (stereo not drawn) [Compound 394]	≤ 100
O=C(Nc1cc2c(c(OC3CCC3)n1)OCC2)c1ccc(S(=O)(=O)NCCO)cc1N1CCC2(CC1)CC2 [Compound 87]	≤ 100
C[C@H](CO)NS(=O)(=O)c1ccc(NC(=O)c2cc(N3CCO[C@H](C)C3)c3c(ccn3C)c2)c(N2CCC3(CC2)CC3)c1 [Compound 448]	≤ 100
Cn1ccc2cc(C(=O)Nc3ccc(S(=O)(=O)NCCO)cc3N3CCC4(CC3)CC4)nc(N3CCC4(CC4)C3)c21 [Compound 502]	≤ 100
CC(C)(CO)Nc1cc(NC(=O)c2ccc(NS(=O)(=O)CCO)cc2N2CCC3(CC2)CC3)cc2ccoc12 [Compound 139]	≤ 100
C[C@@H]1CN(c2cc(C(=O)Nc3ccc(NS(=O)(=O)CCO)cc3N3CCC4(CC3)CC4)cc3c2N(C)CC3)CCO1 [Compound 290]	≤ 100
Cn1ccc2cc(NC(=O)c3ccc(NS(=O)(=O)CCO)cc3N3CCC4(CC3)CC4)cc(N3CCC(F)CC3)c21 [Compound 393]	≤ 100
O=C(Nc1cc(N2CCC(F)CC2)c2occc2c1)c1ccc(NS(=O)(=O)CCO)cc1N1CCC2(CC1)CC2 [Compound 137]	≤ 100
C[C@@H]1CN(c2cc(NC(=O)c3ccc(S(=O)(=O)N[C@@H](C)CO)cc3N3CCC4(CC3)CC4)cc3ccoc23)CCO1 [Compound 159]	≤ 100
CN1CCc2cc(C(=O)Nc3ccc(S(=O)(=O)NCCO)cc3N3CCC4(CC3)CC4)cc(OCCC(F)(F)F)c21 [Compound 309]	≤ 100
C[C@@H]1CN(c2cc(NC(=O)c3ccc(S(=O)(=O)NCCO)cc3N3CCC4(CC3)CC4)cc3c2N(C)CC3)CCO1 [Compound 274]	≤ 100
C[C@H](CO)S(=O)(=O)Nc1ccc(C(=O)Nc2cc3c(c(N4CCC(F)(F)CC4)n2)OCC3)c(N2CCC3(CC2)CC3)c1 [Compound 78]	≤ 100
CC(C)(CO)Nc1cc(NC(=O)c2ccc(S(=O)(=O)NCCO)cc2N2CCC3(CC2)CC3)cc2c1OCC2 [Compound 27]	≤ 100
CN1CCc2cc(NC(=O)c3ccc(NS(=O)(=O)CCO)cc3N3CCC4(CC3)CC4)cc(N3CCC4(CC4)C3)c21 [Compound 262]	≤ 100
C[C@H]1CN(c2nc(C(=O)Nc3ccc(S(=O)(=O)NCCO)cc3N3CCC4(CC3)CC4)cc3ccoc23)CCO1 [Compound 243]	≤ 100
C[C@@H](CO)S(=O)(=O)Nc1ccc(NC(=O)c2cc3ccn(C)c3c(N3CCC(F)(F)CC3)n2)c(N2CCC3(CC2)CC3)c1 [Compound 493]	≤ 100
C[C@H](CO)NS(=O)(=O)c1ccc(NC(=O)c2cc3c(c(N4CCO[C@H](C)C4)n2)N(C)CC3)c(N2CCC3(CC2)CC3)c1 [Compound 384]	≤ 100
C[C@@H]1CN(c2cc(NC(=O)c3ccc(NS(=O)(=O)[C@@H](C)CO)cc3N3CCC4(CC3)CC4)cc3c2OCC3)CCO1 [Compound 15]	≤ 100
O=C(Nc1cc2c(c(N3CCC(F)(F)CC3)c1)NCCC2)c1ccc(NS(=O)(=O)CCO)cc1N1CCC2(CC1)CC2 [Compound 541]	≤ 100
Cn1ccc2cc(C(=O)Nc3ccc(NS(=O)(=O)CCO)cc3N3CCC4(CC3)CC4)cc(OCCC(F)(F)F)c21 [Compound 421]	≤ 100
C[C@H](CO)S(=O)(=O)Nc1ccc(NC(=O)c2cc3ccn(C)c3c(N3CCC(F)(F)CC3)n2)c(N2CCC3(CC2)CC3)c1 [Compound 494]	≤ 100
O=C(Nc1ccc(S(=O)(=O)NCCO)cc1N1CCC2(CC1)CC2)c1cc(N2CC3CC3C2)c2occc2c1 (stereo not drawn) [Compound 186]	≤ 100
